14 compounds from US11319298B2 (Merck Sharp & Dohme Corp., priority 2016, dated 2022) can be followed below.

This assay deals with T1, human M4 muscarinic acetylcholine receptor (Homo sapiens, UniProt P08173).
T1 construct: expressed in transfected cells; host or cells: CHO-K1
T1 sequence (P08173 1-479): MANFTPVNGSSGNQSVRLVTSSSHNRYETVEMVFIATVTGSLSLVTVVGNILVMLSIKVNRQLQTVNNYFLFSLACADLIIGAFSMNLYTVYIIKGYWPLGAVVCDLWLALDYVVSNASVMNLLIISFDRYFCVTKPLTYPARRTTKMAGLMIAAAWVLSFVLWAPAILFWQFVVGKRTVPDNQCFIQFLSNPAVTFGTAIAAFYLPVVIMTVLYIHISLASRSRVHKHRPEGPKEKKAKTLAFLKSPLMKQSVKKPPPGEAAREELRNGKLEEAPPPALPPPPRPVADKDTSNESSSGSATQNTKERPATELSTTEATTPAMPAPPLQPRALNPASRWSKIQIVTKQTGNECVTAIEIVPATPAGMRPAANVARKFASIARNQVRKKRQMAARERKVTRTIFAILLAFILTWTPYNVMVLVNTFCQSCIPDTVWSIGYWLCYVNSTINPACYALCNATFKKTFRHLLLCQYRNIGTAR
Briefly: human FLIPR-based M4 PAM assay, CHO-K1 cells stably transfected with human M4 receptor and chimeric G-protein Gαqi5. Format: cell-based. Conditions: inflection point (IP) of dose response curve; acetylcholine added at 20% of maximum response; CHO-K1 human M4/Gαqi5, FLIPR Tetra. Put shortly:
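The FLIPR read recorded 4 min after compound was added across a concentration range, then 3.5 min after acetylcholine giving 20% of its maximal response, with an occasional extra EC70 addition. Cells were dye-loaded for about 1 h at 37 °C. Potency is the curve inflection point from a four-parameter logistic fit.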
As usually defined, the EC50 is the concentration giving half of the maximal effect. Low readings indicate a more potent agent, high ones a less potent agent. Regarding `Cc1cc(C(=O)NCc2ccncc2)nnc1N1CCC(Oc2cccnc2)CC1` [Example 122, 5-methyl-N-(pyridin-4-ylmethyl)-6-[4-(pyridin-3-yloxy)piperidin-1-yl]pyridazine-3-carboxamide], it took 101 nM to reach a half-maximal effect (EC50).

On to `COc1ccc(OC2CCN(c3nnc(C(=O)NCCc4cn[nH]c4)cc3C)CC2)cn1` [Example 123, 6-{4-[(6-methoxypyridin-3-yl)oxy]piperidin-1-yl}-5-methyl-N-[2-(1H-pyrazol-4-yl)ethyl]pyridazine-3-carboxamide], for which the EC50 turned out to be 101 nM.

Regarding `Cc1cc(C(=O)NC2C3CC2C3)nnc1N1CCC(Oc2ccc3[nH]ncc3c2)CC1` (centres unmarked) [Example 124, N-bicyclo[1.1.1]pent-2-yl-6-[4-(1H-indazol-5-yloxy)piperidin-1-yl]-5-methylpyridazine-3-carboxamide], the half-maximal effective concentration (EC50) is 101 nM.

Take `COc1ccc(O[C@@H]2CCN(c3nnc(C(=O)NCc4ccncc4)cc3C)C[C@@H]2F)cn1` [Example 125, 6-{(3S,4R)-3-fluoro-4-[(6-methoxypyridin-3-yl)oxy]piperidin-1-yl}-5-methyl-N-(pyridin-4-ylmethyl)pyridazine-3-carboxamide]: a half-maximal effect (EC50) was put at 102 nM. To `COc1ccc(OC2CCN(c3nnc(C(=O)N[C@@H]4CCc5cccnc5C4)cc3C)CC2)cn1` [Example 126A, (R)-6-{4-[(6-methoxypyridin-3-yl)oxy]piperidin-1-yl}-5-methyl-N-(5,6,7,8-tetrahydroquinolin-7-yl)pyridazine-3-carboxamide] belongs 110 nM; to `COc1ccc(OC2CCN(c3nnc(C(=O)N[C@H]4CCc5cccnc5C4)cc3C)CC2)cn1` [Example 126B, (S)-6-{4-[(6-methoxypyridin-3-yl)oxy]piperidin-1-yl}-5-methyl-N-(5,6,7,8-tetrahydroquinolin-7-yl)pyridazine-3-carboxamide], 159 nM. To `COc1ccc(OC2CCN(c3nnc(C(N)=O)cc3C)CC2)cn1` [Example 127, 6-{4-[(6-methoxypyridin-3-yl)oxy]piperidin-1-yl}-5-methylpyridazine-3-carboxamide] belongs 114 nM. In the case of `CONC(=O)c1cc(C)c(N2CCC(Oc3ccc(OC)nc3)CC2)nn1` [Example 128, N-methoxy-6-{4-[(6-methoxypyridin-3-yl)oxy]piperidin-1-yl}-5-methylpyridazine-3-carboxamide], the response was half-maximal at 121 nM (EC50). To `CNC(=O)c1cc(C)c(N2CCC(Oc3ccc(OC)nc3)CC2)nn1` [Example 129, 6-{4-[(6-methoxypyridin-3-yl)oxy]piperidin-1-yl}-N,5-dimethylpyridazine-3-carboxamide] belongs 121 nM; to `Cc1cc(C(=O)N[C@H]2CCc3ncccc3C2)nnc1N1CCC(Oc2cccc(C#N)c2)CC1` [Example 130A, (S)-6-[4-(3-cyanophenoxy)piperidin-1-yl]-5-methyl-N-(5,6,7,8-tetrahydroquinolin-6-yl)pyridazine-3-carboxamide], 125 nM; to `Cc1cc(C(=O)N[C@@H]2CCc3ncccc3C2)nnc1N1CCC(Oc2cccc(C#N)c2)CC1` [Example 130B, (R)-6-[4-(3-cyanophenoxy)piperidin-1-yl]-5-methyl-N-(5,6,7,8-tetrahydroquinolin-6-yl)pyridazine-3-carboxamide], 254 nM. Under `Cc1cc(C(=O)NC2C3CC2C3)nnc1N1CCC(Oc2ccc3c(c2)OCCO3)CC1` (centres unmarked) [Example 131, N-bicyclo[1.1.1]pent-2-yl-6-[4-(2,3-dihydro-1,4-benzodioxin-6-yloxy)piperidin-1-yl]-5-methylpyridazine-3-carboxamide] stands 127 nM; under `CONC(=O)c1cc(C)c(N2CCC(Oc3cccc(C#N)c3)CC2)nn1` [Example 132, 6-[4-(3-cyanophenoxy)piperidin-1-yl]-N-methoxy-5-methypyridazine-3-carboxamide], 139 nM; under `Cc1cc(C(=O)NC2CCc3ncccc3C2)nnc1N1CCC(OCC2CC2)CC1` (centres unmarked) [Example 133, 6-[4-(cyclopropylmethoxy)piperidin-1-yl]-5-methyl-N-(5,6,7,8-tetrahydroquinolin-6-yl)pyridazine-3-carboxamide], 142 nM.
